Reference: patent US20080207532A1, “Use of Nordihydroguaiaretic Acid Derivatives in the Treatment of Drug Resistant Cancer, Viral and Microbial Infection” (Johns Hopkins University, priority 2004, published 2008)
Read-outs that look alike come from different tables or passages of the source.

Experiments:
[1] = test system: MCF-7; conditions: MCF-7, drug sensitive human breast cancer cell line; read-out: reported IC50; cited from earlier work
[2] = test system: NCI/ADR-RES cells; experiment: SRB cytotoxicity assay with median-effect / combination index analysis; type: cell-based, human; conditions: for IC50: Homo sapiens
Experimental: The multidrug resistant cell line, NCI/ADR-RES, was obtained from the DTP Human Tumor Cell Line Screen (Developmental Therapeutics Program, NCI). Both cell lines were maintained in Dulbecco's modified Eagle's medium supplemented with 10% fetal bovine serum and the antibiotics penicillin and streptomycin. […] Stocks of M4N and paclitaxel (Sigma-Aldrich, St. Louis, Mo.) were prepared in dimethyl sulfoxide (DMSO) and added to the cell culture medium so that the final concentration of DMSO was one percent. Aqueous stocks of Dox (Sigma-Aldrich) were prepared and filter sterilized before dilution into growth medium.
NCI/ADR-RES cells were seeded at a density of 2×10^4 cells per well in 24 well plates and 24 h later the growth medium was supplemented with M4N, Dox, paclitaxel or combinations of M4N with Dox or M4N with paclitaxel. MAN was used at concentrations between 1.5 and 48 μM. For the combination of MAN and Dox a constant molar ratio of 2.4:1 (M4N:Dox) was used and for M4N and paclitaxel the ratio was 20:1 (M4N:paclitaxel). Three days after drug addition cytoxicity was assessed with the SRB assay (14) with 540 and 690 nm (reference) absorbance measured with a Power Wave 200 microplate reader (Bio-Tek Instruments, Winooski, Vt.).
The combination index (CD isobologram method of Chou and Talalay (16, 17, 18, 19) which is based on the median effect principle, was used to calculate synergism or antagonism for the combined drug effects. Dose-effect curves for each drug, singly and in combination, in serially-diluted concentrations were plotted using the median-effect equation and plot (18, 20) and the CI equation and plot (19). CI values at different effect and dose levels and isobolograms were generated automatically using the computer software CompuSyn (20). With this method, additive, synergistic or antagonistic effects are indicated by CI values of 1, <1, and >1, respectively. Comparison of the ratio of doses required to reach a given effect level for each single drug and the drugs in combination was used to determine the dose-reduction index (DRI).

[3] = test system: MDR-1 gene; conditions: cited from earlier work
[4] = test system: C3 tumors; experiment: intratumoral treatment of C3 cell-induced tumors in mice; type: in vivo; conditions: daily intratumoral injections for 4 days
Experimental: Four C57b1/6 mice were inoculated with 5×10^5 C3 cells subcutaneously between the shoulders. Tumors were allowed to develop for approximately 20 days. The mice then received daily intratumoral injections of 0.1 ml of 0.15 M NaCl, 10 mg, 20 mg or 40 mg of Maltose-M3N dissolved in 0.15 M NaCl. After 4 days of treatment, the mice were euthanized and the tumors were excised, immediately fixed and then stored in 4% formaldehyde in PBS. Tissue samples were then sent to Paragon Bioservices (Baltimore, Md.) for histology and immunohistochemistry using antibodies against Cdc2 and survivin.

[5] = test system: Hep3B, HT29, K562, LNCaP, and MCF7; experiment: MTT cell viability of human tumor cell lines; type: cell-based; conditions: 72 h, every cell line tested (Hep3B, HT29, K562, LNCaP, MCF7), 3 days
Experimental: Human tumor cell lines were obtained from ATCC (Mannassas, Va.). The human hepatocellular carcinoma cell line, Hep3B, was maintained in Eagle's MEM supplemented with 10% FBS; the human breast cancer cell line, MCF7, was grown in DMEM containing 10% FBS; the human colorectal carcinoma cell line, HT29, was cultured in McCoy's 5a medium with 10% FBS; the human prostate carcinoma cell line, LNCaP, was maintained in RPMI 1640 with 10% FBS and human erythroleukemia cell line, K562, was propagated in Iscove's modified Dulbecco's medium (IMDM) containing 10% FBS. All of the cultures contained the antibiotics penicillin and streptomycin. The C3 cell line was generated by transfection of the EJras-transformed C57B16 (B6) mouse embryo cells with fall length HPV16. C3 cells were grown and maintained in IMDM supplemented with 5% FBS plus penicillin and streptomycin.
For cell culture experiments, Maltose-M3N was dissolved in water to a concentration of 10 mM and then sterilized by filtration. Cells were seeded at approximately 2×10^3 cells per cm^2 in complete media. Twenty-four hours after seeding, the growth media was removed and replaced with media containing the desired concentrations of Maltose-M3N.
Twenty thousand cells were seeded into each well of 24-well plates. […] The solubilized dye was transferred to 96-well plates and read at the wavelength of 540 nm using an ELISA reader.

[6] = test system: Hep3B cells; experiment: DAPI staining of nuclei for apoptotic bodies; type: cell-based, human; conditions: 60 μM, 72 hr
Experimental: FIG. 9. (A) Effect of Maltose-M3N on the proliferation of human tumor cell lines. HT29, LNCaP, Hep3B, K562, and MCF7 were treated with different concentrations of Maltose-M3N for 72 hours. Percent cell viability was measured by MTT assay and expressed as mean±SD of triplicate data points. (B) Untreated Hep3B cells or treated with 60 μM Maltose-M3N for 72 hr were stained with DAPI. Arrows indicate apoptotic bodies.
The growth inhibitory effect of Maltose-M3N was evaluated in five human cancer cell lines, including Hep3B, HT29, K562, LNCaP, and MCF7.

[7] = test system: NCI/ADR-RES multidrug resistant breast cancer xenografts; experiment: combination therapy against NCI/ADR-RES xenografts in nude mice; conditions: two weeks
Experimental: Nude mice bearing NCI/ADR-RES multidrug resistant breast cancer xenografts were used as a model for combination therapy to further examine synergy between M4N and paclitaxel.
T-cell deficient female nude (nu/nu) mice, 5-6 weeks of age, were purchased from Charles River Laboratories (Wilmington, Mass.) and were housed in a pathogen-free room. All experiments involving the mice were carried out in accordance with the Johns Hopkins University Animal Care and Use Committee guideline. The mice were implanted subcutaneously in both flanks with 1×10^6 NCI/ADR-RES cells suspended in Hank's balanced salt solution (HBSS). […] For intraperitoneal (i.p.) administration, M4N, maltose-M3N and paclitaxel were dissolved in a recently developed reduced cremophor solution containing 20% (v) dehydrated ethanol, 20% (v) Cremophor EL, PEG 300, <11% (v) Tween 80 (22). Daily injections of 0.05 ml were performed for each drug and drug combination.
Tumors were measured in two perpendicular dimensions once every seven days, and the tumor volumes were calculated according to the following formula: […]
where a is the width of the tumor (smaller diameter) and b is the length (larger diameter) (23). The mean tumor volume and standard error were calculated for each treatment group. Relative mean tumor volumes, (V/V0), where V is the mean tumor volume at a particular time and V0 is the mean tumor volume at day 0 (23), were determined and used to assess tumor growth inhibition (T/C value) using the following equation:
T/C(%)=Relative Mean Tumor Volume of treated/Relative Mean Volume of control×100.
The NCI standard for the minimal level for antitumor activity (T/C≦42%) was adopted (25). At the termination of the experiment the tumors were excised and fixed in formaldehyde. Tissue samples were then sent to Paragon Bioservices for histology and immunohistochemistry using antibodies against human P-glycoprotein (Pgp).
Two dosage regimens of M4N and paclitaxel, both with a constant molar ratio of 20:1 (M4N:paclitaxel), were employed as determined by in vitro testing to be synergistic as shown in Table 1. The 8 and 16 μmol m^2 doses of pactitaxel were submaximal based on values from other studies (22) and the M4N doses of 160 and 320 μmol/m^2 were arrived at by decreasing the maximum tolerated dose used in our previous study with MCF-7 breast cancer xenografts (5). An additional NDGA derivative was also tested. Maltose-M3N was developed as a water soluble alternative to M4N, however for consistency it was dissolved in the same reduced cremophor solvent system as M4N and paclitaxel for this study.

[8] = solubility in water; type: physicochemical
[9] = 72 h, NCI/ADR-RES, three days, combinations at molar ratio 2.4:1 (M4N:Dox) or 20:1 (M4N:paclitaxel), given as M4N + second drug, read-out: Dm, median effect dose (concentration that inhibits cell growth by 50%)
[10] = single agent, NCI/ADR-RES, read-out: IC50
[11] = M4N/Dox combination 2.4:1, NCI/ADR-RES
[12] = M4N/Dox combination, NCI/ADR-RES
[13] = higher regimen: M4N or Mal-M3N 320, Px 16 μmoles/m^2, i.p. daily
[14] = M4N/paclitaxel combination 20:1, NCI/ADR-RES
[15] = M4N/paclitaxel combination, NCI/ADR-RES
[16] = lower regimen: M4N 160, Px 8 μmoles/m^2, i.p. daily

COc1cccc2c1C(=O)c1c(O)c3c(c(O)c1C2=O)C[C@@](O)(C(=O)CO)C[C@@H]3O[C@H]1C[C@H](N)[C@H](O)[C@H](C)O1 [Dox, doxorubicin]
IC50 [1]: 130 nM | concentration necessary to inhibit the growth of 75% of cells (ED75) ([2]; Dox alone, NCI/ADR-RES): 30.5 µM | concentration necessary to inhibit the growth of 75% of cells (ED75) ([2]; Dox with concurrent 11.3 μM M4N, NCI/ADR-RES): 4.7 µM | IC50 [2, 9]: 3.22 µM | IC50 [2, 10]: 3.22 µM | DRI value at ED75 [2, 11]: 6.47 | DRI value at ED90 [2, 11]: 30.50 | DRI value at ED95 [2, 11]: 87.56 | decrease of ED75 by concurrent M4N (DRI) [2, 12]: 6.47 fold | reduction of ED95 by concurrent M4N (DRI) [2, 12]: 87.6 fold

COc1cc2c(cc1O)CCN[C@]21CS[C@@H]2c3c(OC(C)=O)c(C)c4c(c3[C@H](COC1=O)N1[C@@H]2[C@H]2c3c(cc(C)c(OC)c3O)C[C@@H]([C@@H]1O)N2C)OCO4 [ET-743]
MDR-1 gene activation [3]: able to inhibit MDR-1 gene activation

COc1ccc(C[C@H](C)[C@H](C)Cc2ccc(OC)c(OC3OC(CO)C(OC4OC(CO)C(O)C(O)C4O)C(O)C3O)c2)cc1OC (stereo partly shown) [Maltose-M3N]
Cdc2 protein expression in tumors [4]: reduced expression levels | apoptosis and necrosis by H&E staining [4]: elevated levels of apoptosis and necrosis | survivin protein expression in tumors [4]: reduced expression levels | IC50 [5]: 20 to 40 µM | mode of cell death (DAPI staining) [6]: cell death occurred via apoptosis | Relative Mean Tumor Volume [7, 13]: 1.25 | T/C % [7, 13]: 47.7% | solubility in aqueous solution [8]: water soluble

CC(=O)O[C@H]1C(=O)[C@@]2(C)[C@H]([C@H](OC(=O)c3ccccc3)[C@]3(O)C[C@H](OC(=O)[C@H](O)[C@@H](NC(=O)c4ccccc4)c4ccccc4)C(C)=C1C3(C)C)[C@]1(OC(C)=O)CO[C@@H]1C[C@@H]2O [paclitaxel]
IC50 [1]: 6.4 nM | IC50 [2, 9]: 3.26 µM | IC50 [2, 10]: 3.26 µM | DRI value at ED75 [2, 14]: 54.32 | DRI value at ED90 [2, 14]: 150.31 | DRI value at ED95 [2, 14]: 300.34 | decrease of ED50 by concurrent M4N (DRI) [2, 15]: 19.63 fold | decrease of ED95 by concurrent M4N (DRI) [2, 15]: 300.3 fold | Deaths [7, 13]: 0/7 | Relative Mean Tumor Volume [7, 13]: 1.59 | T/C % [7, 13]: 60.7% | Deaths [7, 16]: 0/7 | Mean Body Weight Change [7, 16]: +0.3 g/mouse | Relative Mean Tumor Volume [7, 16]: 0.90 | T/C % [7, 16]: 34.4%
